PMC4438233, “Antibacterial effects of Traditional Chinese Medicine monomers against Streptococcus pneumoniae via inhibiting pneumococcal histidine kinase (VicK)” (Frontiers in Microbiology, 2015)
Where “and” joins values, the source holds several entries; their conditions need not be identical. Equal entries are not always repeated. Where two headings read alike, the source gives them in different places.

Assays:
[1] = tested on: Penicillin-resistant S. pneumoniae strains; test: Checkerboard test with penicillin against penicillin-resistant S. pneumoniae; assay type: cell-based, Streptococcus pneumoniae; details: Streptococcus pneumoniae, agent alone
Experimental: (§1) Minimum inhibitory concentration (MIC) assays for the antibacterial activities of the compounds were performed according to the standard […] method of the Clinical and Laboratory Standards Institute of America. MIC testing of drug-resistant S. pneumoniae, drug-resistant S. aureus, streptococci and antimicrobial combination was also performed using the same method. Briefly, the drugs were serially diluted 2-fold into eight wells with C+Y medium, yielding final concentrations ranging from […]. Then 10^6 CFU bacteria were added to each well. Inoculated medium containing 1% DMSO served as a bacterial growth control, whereas uninoculated medium served as a sterility control. The plates were incubated at 37°C for 12–16 h. […] The experiment was repeated three times.
The antimicrobial effects of different combinations of two antimicrobial agents were assayed using the checkerboard test (Bajaksouzian et al., [1997]). Each experiment was repeated thrice. The in vitro interaction between the five drugs with PEN was quantified by the fractional inhibitory concentration (FIC). The FIC index (FICI) was calculated using the following formula:
(§2) (2) FIC=FICA+FICB=[A]/MICA+[B]/MICB
(§3) where [A] and [B] are the concentrations of drugs A and B, respectively; MICA and FICA are the MIC and FIC of drug A for the organism, respectively; and MICB, and FICB are the MIC and FIC of drug B for the organism, respectively. The FIC index obtained was interpreted as follows: =0.5, synergy; FIC > 2.0, antagonism (Gupta and Kohli, [2003]).

Cytotoxicity assay (MTT) = assay type: cell-based; details: African green monkey
Experimental: The cytotoxicity of the drugs to Vero cells (African green monkey kidney cells) was detected as previously described (Huang et al., [2012]) with minor modifications. In 96-well cell culture plates, the cells (~10^3 cells per well) were exposed to the serially diluted drugs for 48 h. Then, relative cell numbers were assayed by co-incubation with 3-(4, 5-dimethylthiazol-2-yl)-2, 5-diphenyltetrazolium bromide for 4 h at 37°C in 5% CO2. Purple formazan salts were dissolved with DMSO after incubation. The absorbance of each well was measured at 595 nm and then converted to percentages of the control (cells treated with 1% DMSO). The concentration of the derivatives with 50% cytotoxicity for Vero cells (CC50) was calculated using GraphPad Prism 5 (San Diego, CA).

S. pneumoniae NCTC7466 = test: MIC against S. pneumoniae NCTC7466 (D39); assay type: cell-based; details: Streptococcus pneumoniae
Experimental: as §1

[2] = tested on: Methicillin resistant S. aureus; test: MIC against methicillin resistant S. aureus; assay type: cell-based; details: Staphylococcus aureus
Experimental: as §1

S. pneumoniae = test: Checkerboard test with erythromycin or tetracycline against S. pneumoniae; assay type: cell-based, Streptococcus pneumoniae
Experimental: The antimicrobial effects of different combinations of two antimicrobial agents were assayed using the checkerboard test (Bajaksouzian et al., [1997]). Each experiment was repeated thrice. […] The FIC index (FICI) was calculated using the following formula:
as §2, §3

S. mutans = test: MIC against S. mutans; assay type: cell-based; details: Streptococcus mutans
Experimental: as §1

[3] = in combination with Erythromycin
[4] = in combination with Tetracycline

CC(C)=CCCC1=CC(=O)c2c(O)ccc(O)c2C1=O [Compound 3, Deoxyshikonin]
MIC ([1]; read-out: MIC, Alone, strain 652336): 136 µg/mL
MIC ([1]; read-out: MIC, Alone, strain 736007): 136 µg/mL
MIC ([1]; read-out: MIC, Alone, strain 8364981): 136 µg/mL
MIC ([1]; read-out: MIC, Alone, strain 12092624): 136 µg/mL
CC50 at 48 h (Cytotoxicity assay (MTT); Vero cells): 4.68 mM
MIC (S. pneumoniae NCTC7466; NCTC7466): 17 µg/mL and 62 µM
MIC [2]: 34 to 68 µg/mL
FICI (S. pneumoniae; [3]): 0.37
Outcome (S. pneumoniae; [3]): Synergy (=0.5, synergy)
FICI (S. pneumoniae; [4]): 0.125
Outcome (S. pneumoniae; [4]): Synergy (=0.5, synergy)
MIC (S. mutans): 34 µg/mL

CCCCCCCCCCCCOC(=O)c1cc(O)c(O)c(O)c1 [Compound 5, Dodecyl gallate]
MIC ([1]; strain 652336, read-out: MIC, Alone): 84.4 µg/mL
MIC ([1]; strain 736007, read-out: MIC, Alone): 337 µg/mL
MIC ([1]; strain 8364981, read-out: MIC, Alone): 168 µg/mL
MIC ([1]; strain 12092624, read-out: MIC, Alone): 84.4 µg/mL
CC50 at 48 h (Cytotoxicity assay (MTT); Vero cells (African green monkey kidney cells)): 6.45 mM
MIC (S. pneumoniae NCTC7466; S. pneumoniae NCTC7466 (D39), read-out: MIC): 21 µg/mL
MIC (S. pneumoniae NCTC7466; S. pneumoniae NCTC7466 (D39), value in parentheses, read-out: MIC): 62 µM
MIC ([2]; Methicillin resistant S. aureus (4 isolates), 10^6 CFU/ml, read-out: MIC): 84.4 to 336 µg/mL
FICI (S. pneumoniae; [3]): 0.31
Outcome (S. pneumoniae; [3]): Synergy (=0.5, synergy)
FICI (S. pneumoniae; [4]): 0.18
Outcome (S. pneumoniae; [4]): Synergy (=0.5, synergy)
MIC (S. mutans; S. mutans clinical isolate, 10^6 CFU/ml, read-out: MIC): 42 µg/mL
